Holding throughout (format): in vivo
In experiment [1] the test system is barnyardgrass (Echinochloa oryzicola vasing). The experiment in a line: Growth inhibition of barnyardgrass in paddy soil pots, application under submerged condition, visual rating (observed value) and Colby expected value. Particulars: Echinochloa oryzicola, soil, read-out: Growth inhibition rate (%) Observed; for inhibition at 2.3 g/ha: 0.023 g/a; for inhibition at 4.5 g/ha: 0.045 g/a. The essentials:
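Barnyardgrass (Echinochloa oryzicola vasing) seeds were sown in paddy field soil in 1/10,000 are pots and kept irrigated at a water depth of 3.5 cm. Wettable powders of the active ingredients were diluted with water and applied under submerged conditions at the prescribed amounts. Growth was visually scored from 0% (as untreated) to 100% (complete kill), and expected values were calculated with Colby's formula.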

Experiment [2] has as its system flatsedge (Cyperus serotinus). Kind of experiment: Growth inhibition of flatsedge (planted tubers) in paddy soil pots, application under submerged condition, visual rating and Colby expected value. As to conditions: Cyperus serotinus, soil, 696 h, 2.8 to 3.2 leaf stage, 29 days after application, read-out: Growth inhibition rate (%) Observed. The text has this: (§1) When the herbicidal activity in a case where two active ingredients are combined, is larger than the simple sum of the respective herbicidal activities of the two active ingredients (the expected activity), it is called a synergistic effect. The activity expected by the combination of two active ingredients can be calculated as follows (Colby S. R., “Weed”, vol. 15, p. 20-22, 1967). E=p+q−(p×q÷100) where p: growth inhibition rate when treated with x (g/a) of herbicide X,
(§2) q: growth inhibition rate when treated with y (g/a) of herbicide Y,
(§3) E: growth inhibition rate expected when treated with x (g/a) of herbicide X and y (g/a) of herbicide Y.
(§4) Namely, when the actual growth inhibition rate (observed value) is larger than the growth inhibition rate by the above calculation (expected value), the activity by the combination can be regarded as showing a synergistic effect.
(§5) Growth inhibition rate (%)=0% (equivalent to the non-treated area) to 100% (complete kill)
Paddy field soil was put into a 1/10,000 are pot, and tubers of flatsedge (Cyperus serotinus) were planted and left to stand under an irrigated condition with a water depth of 3.5 cm. When flatsedge reached 2.8 to 3.2 leaf stage, wettable powders of compound A2 and compound (B1.2) were, respectively, diluted with water and applied under submerged condition so that the active ingredients became the prescribed amounts, respectively. The state of growth was visually observed 29 days after application, and evaluation and calculation were carried out in the same manner as in the above Test Example 1.
Paddy field soil was put into a 1/3,000 are pot, and tubers of flatsedge (Cyperus serotinus) were planted and left to stand under an irrigated condition with a water depth of 3.5 cm. When flatsedge reached 4 leaf stage, a wettable powder of compound A2 and an emulsifiable concentrate of compound C4 were, respectively, diluted with water and applied under submerged condition so that the active ingredients became the prescribed amounts, respectively. The state of growth was visually observed 21 days after application, and the growth inhibition rate (%) evaluated in the same manner as in the above Test Example 1 (observed value) and the growth inhibition rate (%) calculated by the above-mentioned Colby method (expected value) are shown in Table 32.
Paddy field soil was put into a 1/10,000 are pot, and tubers of flatsedge (Cyperus serotinus) were planted and left to stand under an irrigated condition with a water depth of 3.5 cm. When flatsedge reached 2.5 to 3.0 leaf stage, wettable powders of compound A2, compound (D2.3) and compound (B4.1) were, respectively, diluted with water and applied under submerged condition so that the active ingredients became the prescribed amounts, respectively. The state of growth was visually observed 30 days after application, and evaluated in the same manner as in the above Test Example 1.
Paddy field soil was put into a 1/10,000 are pot, and tubers of flatsedge (Cyperus serotinus) were planted and left to stand under an irrigated condition with a water depth of 3.5 cm. When flatsedge reached 2.5 to 3.0 leaf stage, wettable powders of compound A2, compound (D2.3) and compound (B6.1) were, respectively, diluted with water and applied under submerged condition so that the active ingredients became the prescribed amounts, respectively. The state of growth was visually observed 30 days after application, and evaluated in the same manner as in the above Test Example 1.
Paddy field soil was put into a 1/10,000 are pot, and tubers of flatsedge (Cyperus serotinus) were planted and left to stand under an irrigated condition with a water depth of 3.5 cm. When flatsedge reached 2.5 to 3.0 leaf stage, wettable powders of compound A2, compound (D2.3) and compound (B8.1) were, respectively, diluted with water and applied under submerged condition so that the active ingredients became the prescribed amounts, respectively. […]

The nature of experiment [3]: Growth inhibition of mixed broadleaf paddy weeds in paddy soil pots, application under submerged condition, visual rating and Colby expected value. Particulars: mixed broadleaf paddy weeds, soil, 504 h; 0.12 g/a; false pimpernel one leaf-pair stage; 21 days after application; read-out: Growth inhibition rate (%) Observed.
Source text: as §1, §2, §3, §4, §5
Paddy field soil was put into a 1/1,700 are pot, and mixed seeds of false pimpernel (Lindernia pyxidaria), abunome (Dopatrium junceum), long stem waterwort (Elatine triandra SCHK.) and toothcup (Rotala india) were sown and left to stand under an irrigated condition with a water depth of 3.5 cm. When false pimpernel reached one leaf-pair stage, wettable powders of compound A2 and compound (B1.2) were, respectively, diluted with water and applied under submerged condition so that the active ingredients became the prescribed amounts, respectively. The state of growth was visually observed 21 days after application, and evaluation and calculation were carried out in the same manner as in the above Test Example 1.
Paddy field soil was put into a 1/1,700 are pot, and mixed seeds of false pimpernel (Lindernia pyxidaria), abunome (Dopatrium junceum), long stem waterwort (Elatine triandra SCHK.) and toothcup (Rotala india) were sown and left to stand under an irrigated condition with a water depth of 3.5 cm. When false pimpernel reached two leaf-pair stage, a wettable powder of compound A2 and an emulsifiable concentrate of compound (B8.1) were, respectively, diluted with water and applied under submerged condition so that the active ingredients became the prescribed amounts, respectively. The state of growth was visually observed 22 days after application, and evaluation and calculation were carried out in the same manner as in the above Test Example 1.

Where [4] appears, read: 504 h, 3.0 to 3.3 leaf stage, 21 days after application.
The mark [5] stands for this setting: 528 h, 2.5 to 3.0 leaf stage, 22 days after application.

Read-outs that look alike come from different tables or passages of the source.

In the case of `COc1cc(OC)nc(NC(=O)NS(=O)(=O)c2c(-c3nnn(C)n3)cnn2C)n1` [Compound (B1.2), azimsulfuron], in experiment [1] (setting [4]), the inhibition at 2.3 g/ha is 0% and the inhibition at 4.5 g/ha came out at 7%. For the same compound, in experiment [1] (setting [5]), the inhibition at 2.3 g/ha stood at 0% and the inhibition at 4.5 g/ha came out at 53%. Further, the inhibition at 3 g/ha in experiment [1] (696 h, 0.03 g/a, 2.4 to 3.2 leaf stage, 29 days after application, Test Example 45) was 30%. Further, the inhibition at 6 g/ha in experiment [1] (696 h, 0.06 g/a, 2.4 to 3.2 leaf stage, 29 days after application, Test Example 45) amounted to 57%. In experiment [1] (696 h, 0.075 g/a, 2.4 to 3.2 leaf stage, 29 days after application, Test Example 45), the inhibition at 7.5 g/ha came out at 60%. Besides, in experiment [2] (0.0125 g/a), the inhibition at 1.25 g/ha stood at 20%. Also, in experiment [2] (0.015 g/a), the inhibition at 1.5 g/ha was determined as 33%. In experiment [2] (0.0188 g/a), the inhibition at 1.88 g/ha amounted to 58%. The inhibition at 12 g/ha in experiment [3] came to 60%.

(Values after patent US20070232492A1, “Herbicidal Composition” (Ishihara Sangyo Kaisha, LTD., priority 2004, published 2007).)
